From patent US5466861A, “Bridged bicyclic aromatic compounds and their use in modulating gene expression of retinoid receptors” (SRI International, priority 1992, dated 1995) come the findings set out here.

Common to all, as to type: cell-based
In test [1] the test system is CRBPII-RARE, activated only by RXR homodimers. Nature of the test: Transient transfection CAT reporter assay, CRBPII-RARE. The note with it: CV-1 cells; retinoids 7 and 20 at 5×10^-7 M. (In general: In a reporter assay the amount or activity of a reporter protein is the signal.)
Protocol: (§1) To carry out the analysis, four different reporter constructs were prepared carrying the aforementioned gene, followed by cotransfection with RARα, RARβ, or RXRα, or with RXRα and RARα together. […] CV- 1 cells or HEP G2 cells were grown in DME medium supplemented with 10% fetal calf serum. Cells were plated at 1.0×10^5 per well in a 24-well plate 16-24 hours before transfection. In general, 100 ng of reporter plasmid, 150 ng of β-galactosidase expression vector (pCH110, Pharmacia), and variable amounts of receptor expression vector were mixed with carrier DNA (pBluescript) to 1,000 ng of total DNA per well. […] The retinoids 7 and 20 were analyzed at a concentration of 5×10^-7 M.
Test [2] concerns CRBPI gene RARE, bound and activated by RAR/RXR heterodimers. Kind of test: Transient transfection CAT reporter assay, CRBPI-RARE. The note with it: CV-1 cells; retinoids 7 and 20 at 5×10^-7 M.
Protocol: as §1
Test [3] deals with RARβ2 gene promoter RARE (βRARE). Kind of test: Transient transfection CAT reporter assay, βRARE. The settings on record: CV-1 cells; 5×10^-7 M.
Protocol: To carry out the analysis, four different reporter constructs were prepared carrying the aforementioned gene, followed by cotransfection with RARα, RARβ, or RXRα, or with RXRα and RARα together. […] CV- 1 cells or HEP G2 cells were grown in DME medium supplemented with 10% fetal calf serum. Cells were plated at 1.0×10^5 per well in a 24-well plate 16-24 hours before transfection. In general, 100 ng of reporter plasmid, 150 ng of β-galactosidase expression vector (pCH110, Pharmacia), and variable amounts of receptor expression vector were mixed with carrier DNA (pBluescript) to 1,000 ng of total DNA per well. Chloramphenicol acetyl transferase (CAT) activity was normalized for transfection efficiency by the corresponding β-galactosidase activity as described by M. Pfahl et al., /Methods in Enzymology 153:256 (1990).
A further test deals with T1, RXR (RXRα) (Homo sapiens, UniProt P19793).
T1 construct: homodimer readout
T1 sequence (P19793 1-462): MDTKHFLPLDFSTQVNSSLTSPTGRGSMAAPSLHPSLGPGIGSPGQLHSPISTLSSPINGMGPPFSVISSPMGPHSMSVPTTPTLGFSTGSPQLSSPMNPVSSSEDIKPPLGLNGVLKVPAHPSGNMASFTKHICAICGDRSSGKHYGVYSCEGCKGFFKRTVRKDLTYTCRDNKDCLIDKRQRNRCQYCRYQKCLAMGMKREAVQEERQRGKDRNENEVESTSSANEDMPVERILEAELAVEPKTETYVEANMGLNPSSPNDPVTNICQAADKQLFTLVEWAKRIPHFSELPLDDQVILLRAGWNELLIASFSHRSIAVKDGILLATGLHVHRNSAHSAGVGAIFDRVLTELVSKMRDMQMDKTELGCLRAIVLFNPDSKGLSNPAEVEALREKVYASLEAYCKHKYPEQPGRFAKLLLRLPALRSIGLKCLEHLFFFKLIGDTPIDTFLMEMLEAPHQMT
Nature of the test: TREpal-tk-reporter gene transient transfection assay with RXR expression vector. The note with it: for activity on TREpal-tk-reporter with RXR at 10^-7 M / activity on TREpal-tk-reporter with RXR at 10^-8 M / activity with RXR on TREpal-tk-reporter, preliminary evaluation: CV-1 cells; for activity with RXR on TREpal-tk-reporter, preliminary evaluation: RXR expression vector cotransfected; for activation of RXRα (overall conclusion): from TREpal and CRBPII reporter results. From the text: The TREpal-tk-reporter gene was use in the transient transfection assay of the preceding example to evaluate compounds 7 and 20 for induction of RXR activity specifically. The TREpal represents a response element that is activated by both RAR/RXR heterodimers and RXR homodimers (X-K. Zhang et al., Nature 358:587 (1992)).

The next test concerns RXR. Nature of the test: Transient transfection reporter assay in other cell lines incl. Hep G2. The settings on record: various other cell lines, including Hep G2 cells (particular high response).

SMILES strings stand for the structures.

Consider `CC1(C)CCC(C)(C)c2cc(C3(c4ccc(C(=O)O)cc4)SCCS3)ccc21` [Compound 7, [2-(5,6,7,8-Tetrahydro-5,5,8,8-tetramethyl-2-naphthalenyl)-2-(4-carboxyphenyl)]-1,3-dithiolane], for which the “activation of CRBPII-RARE reporter (CAT activity)” value in test [1] was “strong activators”. In test [2], the “activation of CRBPI-RARE reporter (CAT activity)” value is on record as “no response”. Besides, the “activation of βRARE reporter (CAT activity)” value in test [3] is recorded as “slightly activated”. Further, at RXR (RXRα), the “activity on TREpal-tk-reporter with RXR at 10^-7 M” value is listed as “activities similar to 9-cis-retinoic acid”; the “activity on TREpal-tk-reporter with RXR at 10^-8 M” value is reported as “neither of the active compounds revealed activity”; the “activity with RXR on TREpal-tk-reporter, preliminary evaluation” value is “indicated activity with RXR”; the “activation of RXRα (overall conclusion)” value was “effective activators”.
Regarding `CC(C)=C(c1ccc(C(=O)O)cc1)c1ccc2c(c1)C(C)(C)CCC2(C)C` [Compound 20, 4-[1-(5,6,7,8-Tetrahydro-5,5,8,8-tetramethyl-2-naphthalenyl)-2-methyl-1-propenyl]benzoic acid], in test [1], the “activation of CRBPII-RARE reporter (CAT activity)” value is “strong activators”. The “activation of CRBPI-RARE reporter (CAT activity)” value in test [2] was “no response”. The “activation of βRARE reporter (CAT activity)” value in test [3] is “slightly activated”. For the same molecule, the “RXR-specific activation in other cell lines” value in the test on RXR is “significant and RXR-specific activation”. For the same molecule, on RXR (RXRα), the “activity on TREpal-tk-reporter with RXR at 10^-7 M” value is recorded as “activities similar to 9-cis-retinoic acid”; the “activity on TREpal-tk-reporter with RXR at 10^-8 M” value is on record as “neither of the active compounds revealed activity”; the “activity with RXR on TREpal-tk-reporter, preliminary evaluation” value is “indicated activity with RXR”; the “activation of RXRα (overall conclusion)” value was “effective activators”.
